Test results as given in ChEMBL document CHEMBL1201862, “PubChem BioAssay data set” (2004).
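Five concentrations, 48 hours, 96-well plates. GI50 = concentration required for 50% inhibition of growth.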 Active and inactive are the calls of the source. Cut-off read from the data, not from the text of the source: active = GI50 up to about 1.1 µM and inactive = higher.

Experiments:
Assay in all cases: NCI-60 cell line screen, 48 h
786-0 = tested on: 786-0
A498 = tested on: A498
A549 = tested on: A549
ACHN = tested on: ACHN
CAKI-1 = tested on: CAKI-1
COLO 205 = tested on: COLO 205
DLD-1 = tested on: DLD-1
DMS-114 = tested on: DMS-114
DMS-273 = tested on: DMS-273
EKVX = tested on: EKVX
HCC 2998 = tested on: HCC 2998
HCT-116 = tested on: HCT-116
HCT-15 = tested on: HCT-15
HL-60 = tested on: HL-60
HOP-18 = tested on: HOP-18
HOP-62 = tested on: HOP-62
HOP-92 = tested on: HOP-92
HT-29 = tested on: HT-29
IGROV-1 = tested on: IGROV-1
K562 = tested on: K562
KM-20L2 = tested on: KM-20L2
KM12 = tested on: KM12
LOX IMVI = tested on: LOX IMVI
LXFL 529 = tested on: LXFL 529
M14 = tested on: M14
M19-MEL = tested on: M19-MEL
MOLT-4 = tested on: MOLT-4
Malme-3M = tested on: Malme-3M
NCI-H226 = tested on: NCI-H226
NCI-H23 = tested on: NCI-H23
NCI-H460 = tested on: NCI-H460
NCI-H522 = tested on: NCI-H522
OVCAR-3 = tested on: OVCAR-3
OVCAR-4 = tested on: OVCAR-4
OVCAR-5 = tested on: OVCAR-5
OVCAR-8 = tested on: OVCAR-8
RPMI-8226 = tested on: RPMI-8226
RXF 393 = tested on: RXF 393
SF-268 = tested on: SF-268
SF-295 = tested on: SF-295
SF-539 = tested on: SF-539
SK-MEL-28 = tested on: SK-MEL-28
SK-MEL-2 = tested on: SK-MEL-2
SK-MEL-5 = tested on: SK-MEL-5
SK-OV-3 = tested on: SK-OV-3
SN12C = tested on: SN12C
SNB-19 = tested on: SNB-19
SNB-75 = tested on: SNB-75
SNB-78 = tested on: SNB-78
SW-620 = tested on: SW-620
TK-10 = tested on: TK-10
U-251 = tested on: U-251
UACC-257 = tested on: UACC-257
UACC-62 = tested on: UACC-62
UO-31 = tested on: UO-31
CCRF-CEM = tested on: CCRF-CEM
SR = tested on: SR

Measured: GI50

CCOc1cccc2sc(N)nc12
inactive: 786-0 > 100 µM | A498 > 100 µM | A549 > 100 µM | ACHN > 100 µM | CAKI-1 > 100 µM | COLO 205 > 100 µM | DLD-1 > 100 µM | DMS-114 > 100 µM | DMS-273 > 100 µM | EKVX 49 µM | HCC 2998 > 100 µM | HCT-116 > 100 µM | HL-60 > 100 µM | HOP-18 > 100 µM | HOP-62 > 100 µM | HOP-92 > 100 µM | HT-29 > 100 µM | IGROV-1 > 100 µM | K562 > 100 µM | KM-20L2 > 100 µM | KM12 > 100 µM | LOX IMVI > 100 µM | LXFL 529 > 100 µM | M14 > 100 µM | M19-MEL > 100 µM | MOLT-4 > 100 µM | Malme-3M > 100 µM | NCI-H226 > 100 µM | NCI-H23 > 100 µM | NCI-H460 > 100 µM | NCI-H522 > 100 µM | OVCAR-3 > 100 µM | OVCAR-4 > 100 µM | OVCAR-5 > 100 µM | OVCAR-8 > 100 µM | RPMI-8226 > 100 µM | RXF 393 > 100 µM | SF-268 > 100 µM | SF-295 > 100 µM | SF-539 > 100 µM | SK-MEL-28 > 100 µM | SK-MEL-2 > 100 µM | SK-MEL-5 > 100 µM | SK-OV-3 > 100 µM | SN12C > 100 µM | SNB-19 > 100 µM | SNB-75 > 100 µM | SNB-78 > 100 µM | SW-620 > 100 µM | TK-10 > 100 µM | U-251 > 100 µM | UACC-257 > 100 µM | UACC-62 > 100 µM | UO-31 56.1 µM
> 100 µM: HCT-15

CCc1nnc(-c2nsc3ccccc23)s1
72.4 µM: HCT-15
inactive: A549 > 100 µM | ACHN > 100 µM | CCRF-CEM 42.5 µM | COLO 205 > 100 µM | DMS-114 > 100 µM | DMS-273 > 100 µM | EKVX 23 µM | HCC 2998 > 100 µM | HCT-116 > 100 µM | HL-60 > 100 µM | HOP-18 > 100 µM | HOP-62 > 100 µM | HOP-92 69.5 µM | HT-29 > 100 µM | IGROV-1 76.9 µM | K562 54.7 µM | KM-20L2 63.5 µM | KM12 > 100 µM | LOX IMVI > 100 µM | LXFL 529 > 100 µM | M14 > 100 µM | MOLT-4 38.5 µM | NCI-H23 > 100 µM | NCI-H460 > 100 µM | OVCAR-3 24.1 µM | OVCAR-4 > 100 µM | OVCAR-5 > 100 µM | OVCAR-8 > 100 µM | RPMI-8226 45.4 µM | RXF 393 > 100 µM | SF-268 > 100 µM | SF-539 > 100 µM | SK-MEL-28 > 100 µM | SK-MEL-2 > 100 µM | SK-MEL-5 > 100 µM | SN12C > 100 µM | SNB-19 > 100 µM | SNB-75 35.9 µM | SNB-78 > 100 µM | SR 53 µM | SW-620 > 100 µM | TK-10 > 100 µM | U-251 > 100 µM | UACC-257 > 100 µM | UACC-62 > 100 µM | UO-31 34 µM
